Assay results published in patent EP1074259A1, “PREVENTIVES FOR ALCOHOLIC GASTRITIS” (CHUGAI SEIYAKU KABUSHIKI KAISHA, priority 1998, dated 1999).

Tested on: ethanol-induced gastric mucosal injury
Assay: Prevention of 99.5% ethanol-induced gastric mucosal injury in rats
Type: in vivo
Settings: for Mucosal injury suppression rate (%): 1 h before 99.5% ethanol 1 ml/animal, n = 10/group
Protocol: Rats were forced to abstain from food and water for 24 hours, and used as experimental subjects. […] When the two drugs were combined, the dose of the combination treatment was set such that the proportion of sucralfate was 1/3 of the dose, and the proportion of famotidine was 2/3 of the dose, or vice versa (i.e., the proportion of sucralfate was 2/3 of the dose, and the proportion of famotidine was 1/3 of the dose). For each of the individual treatments and the combination treatments, a high dose group, a medium dose group, and a low dose group were provided by setting a high dose, a medium dose, and a low dose at a ratio of 9:3:1. Each dose level of the drug was suspended in a 2% aqueous solution of acacia. The suspension was orally administered in a volume of 2 ml/kg body weight, while only the solvent was administered in the same volume for a control group. […] One hour after administration of the test drug, 99.5% ethanol in an amount of 1 ml/animal was administered orally. One hour later, the animal subjects were sacrificed and the stomach removed, treated, and measured for the extent of injuries occurring in the gastric mucosa. The total amount of injuries occurring In the respective animals was calculated to determine the ED50 values for the preventive effect of the test drug on gastric mucosal injury. […]

| Compound | 50% preventive dose ED50 (mg/kg) (drug administered alone, P.O., rats) | Mucosal injury suppression rate (%) (sucralfate alone 10 mg/kg P.O.) | Mucosal injury suppression rate (%) (sucralfate alone 30 mg/kg P.O.) | Mucosal injury suppression rate (%) (sucralfate alone 90 mg/kg P.O.) | ED50 (Rattus norvegicus, po, drug administered alone, P.O., rats, read-out: 50% preventive dose ED50) [mg/kg] | Mucosal injury suppression rate (%) (famotidine alone 10 mg/kg P.O.) | Mucosal injury suppression rate (%) (famotidine alone 30 mg/kg P.O.) | Mucosal injury suppression rate (%) (famotidine alone 90 mg/kg P.O.) |
| --- | --- | --- | --- | --- | --- | --- | --- | --- |
| sucralfate | Sucralfate 21.4 mg/kg | 19 | 69 | 92 | – | – | – | – |
| NC(N)=Nc1nc(CSCCC(N)=NS(N)(=O)=O)cs1 [Famotidine, famotidine] | – | – | – | – | 46.3 | 13 | 42 | 66 |
